Measured values published in the Kinase Knowledgebase extract (Sharma et al. 2016).

Legend:
[1] = target: PIK3CA (human) (UniProt P42336); assay: Enzyme Assay
[2] = target: PIK3CB (Human) (UniProt P42338); assay: Enzyme Assay
[3] = target: PIK3CG (human) (UniProt P48736); assay: Enzyme Assay
[4] = target: PIK3CD (Human) (UniProt O00329); assay: Cell-Based Assay; conditions: raji
Sequence of PIK3CD (Human) (O00329 whole entry, looked up): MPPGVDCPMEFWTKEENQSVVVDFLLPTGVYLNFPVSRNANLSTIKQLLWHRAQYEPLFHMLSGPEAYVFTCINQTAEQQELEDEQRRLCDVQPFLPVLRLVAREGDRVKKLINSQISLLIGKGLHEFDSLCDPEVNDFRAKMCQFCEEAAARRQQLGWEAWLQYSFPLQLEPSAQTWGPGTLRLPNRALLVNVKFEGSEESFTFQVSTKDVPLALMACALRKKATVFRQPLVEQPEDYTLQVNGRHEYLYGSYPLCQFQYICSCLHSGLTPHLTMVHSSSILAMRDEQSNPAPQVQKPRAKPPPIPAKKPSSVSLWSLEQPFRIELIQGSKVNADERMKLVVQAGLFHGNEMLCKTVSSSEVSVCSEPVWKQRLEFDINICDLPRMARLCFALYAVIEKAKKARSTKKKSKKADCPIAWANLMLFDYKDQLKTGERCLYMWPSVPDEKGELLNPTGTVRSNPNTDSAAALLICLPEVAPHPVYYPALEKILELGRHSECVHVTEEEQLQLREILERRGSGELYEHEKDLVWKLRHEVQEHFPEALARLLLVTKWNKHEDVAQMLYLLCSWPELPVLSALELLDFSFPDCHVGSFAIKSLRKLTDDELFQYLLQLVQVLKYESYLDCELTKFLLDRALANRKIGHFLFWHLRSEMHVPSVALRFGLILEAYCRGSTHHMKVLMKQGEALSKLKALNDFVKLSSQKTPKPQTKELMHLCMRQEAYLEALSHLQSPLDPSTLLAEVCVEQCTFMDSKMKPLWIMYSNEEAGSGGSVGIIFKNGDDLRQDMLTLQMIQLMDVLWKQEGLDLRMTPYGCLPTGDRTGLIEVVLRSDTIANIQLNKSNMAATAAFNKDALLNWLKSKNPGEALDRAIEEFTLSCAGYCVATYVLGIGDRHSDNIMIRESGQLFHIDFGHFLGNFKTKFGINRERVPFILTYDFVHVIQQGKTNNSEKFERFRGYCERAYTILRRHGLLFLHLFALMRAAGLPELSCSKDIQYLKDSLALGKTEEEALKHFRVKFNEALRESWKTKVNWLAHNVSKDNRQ

Sequence of PIK3CG (human) (P48736 whole entry, looked up): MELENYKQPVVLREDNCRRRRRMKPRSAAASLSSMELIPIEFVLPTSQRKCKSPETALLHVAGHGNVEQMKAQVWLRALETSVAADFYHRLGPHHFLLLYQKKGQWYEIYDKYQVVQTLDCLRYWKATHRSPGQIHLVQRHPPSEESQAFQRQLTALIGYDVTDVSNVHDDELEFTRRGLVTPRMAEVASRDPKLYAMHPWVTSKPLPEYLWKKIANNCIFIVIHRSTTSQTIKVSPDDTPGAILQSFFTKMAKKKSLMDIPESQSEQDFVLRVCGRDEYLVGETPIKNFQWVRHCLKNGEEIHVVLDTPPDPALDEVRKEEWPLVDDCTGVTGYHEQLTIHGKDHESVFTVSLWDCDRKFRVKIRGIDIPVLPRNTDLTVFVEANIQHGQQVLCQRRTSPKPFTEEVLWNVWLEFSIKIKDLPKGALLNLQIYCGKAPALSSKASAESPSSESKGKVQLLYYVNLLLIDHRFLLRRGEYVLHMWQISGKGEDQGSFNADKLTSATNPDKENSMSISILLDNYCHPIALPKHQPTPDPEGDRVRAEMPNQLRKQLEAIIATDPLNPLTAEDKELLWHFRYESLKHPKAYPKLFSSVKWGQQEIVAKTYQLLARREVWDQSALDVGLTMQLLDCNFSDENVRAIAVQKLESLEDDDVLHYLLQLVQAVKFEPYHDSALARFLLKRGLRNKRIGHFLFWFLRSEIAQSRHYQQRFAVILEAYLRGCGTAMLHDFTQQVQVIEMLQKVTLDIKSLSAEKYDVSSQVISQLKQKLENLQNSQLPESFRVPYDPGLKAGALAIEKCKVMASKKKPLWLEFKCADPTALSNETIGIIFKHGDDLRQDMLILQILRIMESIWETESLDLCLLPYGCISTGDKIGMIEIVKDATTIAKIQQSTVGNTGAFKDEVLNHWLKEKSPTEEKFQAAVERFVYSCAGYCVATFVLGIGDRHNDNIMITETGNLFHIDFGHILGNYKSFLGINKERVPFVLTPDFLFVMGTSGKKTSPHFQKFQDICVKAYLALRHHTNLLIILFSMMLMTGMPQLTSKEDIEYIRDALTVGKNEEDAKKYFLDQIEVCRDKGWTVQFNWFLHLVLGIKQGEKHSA
Sequence of PIK3CB (Human) (P42338 whole entry, looked up): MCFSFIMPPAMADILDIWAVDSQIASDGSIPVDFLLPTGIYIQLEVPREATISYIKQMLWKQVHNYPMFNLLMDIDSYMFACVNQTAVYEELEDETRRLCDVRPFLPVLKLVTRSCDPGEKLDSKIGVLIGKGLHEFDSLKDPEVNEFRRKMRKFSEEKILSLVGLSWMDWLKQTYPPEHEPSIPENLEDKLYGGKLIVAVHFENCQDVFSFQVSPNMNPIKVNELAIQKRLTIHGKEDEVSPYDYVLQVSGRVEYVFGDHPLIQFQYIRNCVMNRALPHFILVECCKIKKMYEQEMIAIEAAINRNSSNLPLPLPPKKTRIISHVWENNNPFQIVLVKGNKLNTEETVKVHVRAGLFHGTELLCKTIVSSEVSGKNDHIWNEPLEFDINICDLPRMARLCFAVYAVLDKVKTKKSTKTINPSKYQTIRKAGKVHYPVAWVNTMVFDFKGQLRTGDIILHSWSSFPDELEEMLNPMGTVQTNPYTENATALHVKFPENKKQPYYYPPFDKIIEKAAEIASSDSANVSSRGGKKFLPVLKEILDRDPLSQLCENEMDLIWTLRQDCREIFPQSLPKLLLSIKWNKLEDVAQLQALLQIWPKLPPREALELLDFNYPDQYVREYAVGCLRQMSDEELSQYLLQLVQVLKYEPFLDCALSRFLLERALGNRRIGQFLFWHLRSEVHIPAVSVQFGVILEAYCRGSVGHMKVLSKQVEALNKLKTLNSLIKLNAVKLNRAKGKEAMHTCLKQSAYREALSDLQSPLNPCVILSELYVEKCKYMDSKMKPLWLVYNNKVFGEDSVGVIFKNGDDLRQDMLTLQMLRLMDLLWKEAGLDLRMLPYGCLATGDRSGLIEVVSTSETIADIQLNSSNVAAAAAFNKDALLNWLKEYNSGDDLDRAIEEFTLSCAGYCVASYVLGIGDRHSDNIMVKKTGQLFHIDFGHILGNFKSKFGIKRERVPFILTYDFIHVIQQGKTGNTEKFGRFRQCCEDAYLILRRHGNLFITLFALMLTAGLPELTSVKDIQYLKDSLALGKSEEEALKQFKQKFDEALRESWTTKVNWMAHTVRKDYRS
Sequence of PIK3CA (human) (P42336 whole entry, looked up): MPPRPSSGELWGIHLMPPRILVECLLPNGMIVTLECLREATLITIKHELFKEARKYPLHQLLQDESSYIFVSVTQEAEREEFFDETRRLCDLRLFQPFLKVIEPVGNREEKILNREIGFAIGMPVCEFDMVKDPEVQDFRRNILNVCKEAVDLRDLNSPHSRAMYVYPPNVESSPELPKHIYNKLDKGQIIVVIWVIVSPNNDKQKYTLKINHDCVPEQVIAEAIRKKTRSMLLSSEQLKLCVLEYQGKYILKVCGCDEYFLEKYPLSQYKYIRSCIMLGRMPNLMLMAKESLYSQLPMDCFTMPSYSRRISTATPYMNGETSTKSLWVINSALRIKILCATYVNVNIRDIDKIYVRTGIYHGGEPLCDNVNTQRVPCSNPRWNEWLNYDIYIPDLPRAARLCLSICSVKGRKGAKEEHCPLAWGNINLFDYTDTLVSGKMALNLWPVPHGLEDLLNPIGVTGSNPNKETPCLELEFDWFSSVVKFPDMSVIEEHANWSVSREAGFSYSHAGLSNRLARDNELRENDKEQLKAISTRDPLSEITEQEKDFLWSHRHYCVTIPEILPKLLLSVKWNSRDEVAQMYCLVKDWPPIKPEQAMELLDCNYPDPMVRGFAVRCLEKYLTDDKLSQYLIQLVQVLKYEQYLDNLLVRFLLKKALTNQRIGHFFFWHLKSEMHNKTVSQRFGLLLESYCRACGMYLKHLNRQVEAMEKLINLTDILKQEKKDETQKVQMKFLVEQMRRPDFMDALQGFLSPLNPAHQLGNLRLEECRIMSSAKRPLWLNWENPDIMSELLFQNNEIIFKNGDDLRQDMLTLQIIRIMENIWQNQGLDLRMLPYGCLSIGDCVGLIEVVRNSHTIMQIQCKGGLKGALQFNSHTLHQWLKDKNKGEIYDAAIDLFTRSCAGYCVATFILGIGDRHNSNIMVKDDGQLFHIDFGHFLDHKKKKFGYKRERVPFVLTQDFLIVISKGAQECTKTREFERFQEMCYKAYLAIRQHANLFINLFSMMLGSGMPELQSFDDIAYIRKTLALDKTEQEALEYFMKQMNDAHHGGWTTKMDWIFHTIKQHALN

| IC50 [1] [µM] | IC50 [2] [µM] | IC50 [3] [µM] | IC50 [4] [µM] | SMILES |
| --- | --- | --- | --- | --- |
| ≥ 10 | ≥ 10 | 0.1 to 1 |  | C[C@H](NC(=O)c1c(N)nn2cccnc12)c1cc2cccc(/C=N\O)c2c(=O)n1-c1ccccc1 |
| ≥ 10 | ≥ 10 |  |  | COc1ccc(-c2cnc(N)c(C(=O)N[C@@H](C)c3cc4cccc(Cl)c4c(=O)n3-c3ccccc3)n2)cc1F |
| ≥ 10 | ≥ 10 | 0.1 to 1 |  | COc1cccc2c(Br)c([C@H](C)NC(=O)c3c(N)nn4cccnc34)n(-c3ccccc3)c(=O)c12 |
| ≥ 10 | ≥ 10 | ≥ 10 |  | Nc1nccnc1C(=O)N1CCC[C@H]1c1cc2cccc(Cl)c2c(=O)n1-c1ccccc1 |
| ≥ 10 | ≥ 10 |  |  | Cc1cnc(C(=O)N[C@@H](C)c2c(Br)c3cccc(Cl)c3c(=O)n2-c2ccccc2)c(N)n1 |
| ≥ 10 | ≥ 10 |  |  | C[C@H](NC(=O)c1c(N)nn2cccnc12)c1cc2cccc(CNC[C@@H]3CCCO3)c2c(=O)n1-c1ccccc1 |
| ≥ 10 | ≥ 10 |  |  | C[C@H](NC(=O)c1c(N)nn2cccnc12)c1cc2cccc(OC(F)(F)F)c2c(=O)n1-c1ccccc1 |
| 0.1 to 1 | 0.1 to 1 | < 0.1 | < 0.1 | COc1ccc(-c2cnc(N)c(C(=O)N[C@@H](C)c3cc4cccc(Cl)c4c(=O)n3-c3ccccc3)n2)cc1NS(C)(=O)=O |
| 0.1 to 1 | 0.1 to 1 | < 0.1 | < 0.1 | C[C@H](NC(=O)c1cnn2cccnc12)c1cc2cccc(C#CCNC(=O)[C@@H]3CCCO3)c2c(=O)n1-c1ccccc1 |
| ≥ 10 | ≥ 10 | 0.1 to 1 | < 0.1 | C[C@H](NC(=O)c1c(N)ncc2cccnc12)c1cc2cccc(N3CCOCC3)c2c(=O)n1-c1ccccc1 |
| ≥ 10 | ≥ 10 |  | 0.1 to 1 | CC(C)Oc1ccc(-c2cnc(N)c(C(=O)N[C@@H](C)c3cc4cccc(Cl)c4c(=O)n3-c3ccccc3)n2)cn1 |
| ≥ 10 | ≥ 10 | 0.1 to 1 | < 0.1 | COc1ccc(-c2cccc3cc([C@H](C)NC(=O)c4c(N)nn5cccnc45)n(-c4ccccc4)c(=O)c23)cn1 |
| ≥ 10 | ≥ 10 | 0.1 to 1 |  | COc1ncc(-c2cccc3cc([C@H](C)NC(=O)c4c(N)nn5cccnc45)n(-c4ccccc4)c(=O)c23)s1 |
| ≥ 10 | ≥ 10 |  | 0.1 to 1 | COc1cccc2cc([C@H](C)NC(=O)c3c(N)nn4cccnc34)n(-c3ccccc3)c(=O)c12 |
| ≥ 10 | ≥ 10 |  | 0.1 to 1 | COc1cc(-c2cccc3cc([C@H](C)NC(=O)c4ncc(C)nc4N)n(-c4ccccc4)c(=O)c23)ccn1 |
| ≥ 10 |  | 0.1 to 1 | < 0.1 | C[C@H](NC(=O)c1c(N)nn2cccnc12)c1cc2cccc(C#N)c2c(=O)n1-c1ccccc1 |
| 0.1 to 1 |  | < 0.1 | < 0.1 | C[C@H](NC(=O)c1c(N)nn2cccnc12)c1cc2cccc(C#CCNC(=O)C3CCC(=O)C3)c2c(=O)n1-c1ccccc1 (stereo partly specified) |
| ≥ 10 | ≥ 10 |  | 0.1 to 1 | C[C@H](NC(=O)c1c(N)nn2cccnc12)c1cc2cccc(C3CC3)c2c(=O)n1-c1ccccc1 |
| ≥ 10 | ≥ 10 | 0.1 to 1 |  | COc1cccc2c(C)c([C@H](C)NC(=O)c3c(N)nn4cccnc34)n(-c3ccccc3)c(=O)c12 |
| ≥ 10 |  | 0.1 to 1 | 0.1 to 1 | C[C@H](NC(=O)c1c(N)nn2cccnc12)c1cc2cccc(CO)c2c(=O)n1-c1ccccc1 |
| ≥ 10 | ≥ 10 | ≥ 10 |  | CNCc1cccc2cc([C@H](C)NC(=O)c3c(N)nn4cccnc34)n(-c3ccccc3)c(=O)c12 |
| 0.1 to 1 |  | 0.1 to 1 | < 0.1 | C[C@H](NC(=O)c1c(N)nn2cccnc12)c1cc2cccc(C#CCNC(=O)c3ccc(C#N)o3)c2c(=O)n1-c1ccccc1 |
